Source: patent US11161845B2, “Pyrrolopyridine-aniline compounds for treatment of dermal disorders” (Nflection Therapeutics, Inc., priority 2017, dated 2021)

How the values were obtained:
[1] = S9 stability assay, human liver S9 fraction; type: in vitro ADME; settings: for CLint: known MEK compounds; for microsomal CLint at 1 μM / half-life at 1 μM: pH 7.4, Table 1, human liver S9 fraction; for microsomal CLint at 1 μM: read-out: CLint; for half-life at 1 μM: read-out: Liver S9 t1/2
Procedure: Compounds were assessed for metabolic stability in human skin by assessing their rate of disappearance from human S9 skin fraction. Similarly, compounds were assessed for metabolic stability in human liver by assessing their rate of disappearance from human S9 liver fraction. The protocol below can be used to assess the difference between skin and hepatic metabolism.
The assay was carried out in 96-well microtiter plates at 37° C. Reaction mixtures (25 μL) contained a final concentration of 1 μM test compound, 2 mg/mL liver or skin S9 protein, and 1 mM NADPH in buffer (100 mM potassium phosphate, pH 7.4 buffer with 1 mM EDTA, 3 mM MgCl2). At each of the time points (0, 15, 30, and 60 minutes), 150 μL of quench solution (100% acetonitrile with 0.1% formic acid) with internal standard was transferred to each well. Besides the zero minute controls, mixtures containing the same components except the NADPH were also prepared as the negative control. Verapamil or testosterone was included as a positive control to verify assay performance. Plates were sealed and centrifuged at 4° C. for 15 minutes at 4000 rpm. The supernatant was transferred to fresh plates for LC/MS/MS analysis.
All samples were analyzed on LC/MS/MS using an AB Sciex API 4000 instrument, coupled to a Shimadzu LC-20AD LC Pump system. Analytical samples were separated using a Waters Atlantis T3 dC18 reverse phase HPLC column (20 mm×2.1 mm) at a flow rate of 0.5 mL/min. The mobile phase consisted of 0.1% formic acid in water (solvent A) and 0.1% formic acid in 100% acetonitrile (solvent B).
The extent of metabolism was calculated as the disappearance of the test compound, compared to the 0-min control reaction incubations. Initial rates were calculated for the compound concentration and used to determine t1/2 values and subsequently, the intrinsic clearance, CLint=(0.693) (1/t1/2 (min)) (mL incubation/mg of S9 protein).

[2] = biological target: T1, hERG channel protein (Homo sapiens, UniProt Q12809); assay: hERG screening assay (Predictor hERG FP); type: binding; settings: fluorescence polarization tracer displacement
T1 construct: purchased ThermoFisher PV5365
T1 sequence (Q12809 whole entry): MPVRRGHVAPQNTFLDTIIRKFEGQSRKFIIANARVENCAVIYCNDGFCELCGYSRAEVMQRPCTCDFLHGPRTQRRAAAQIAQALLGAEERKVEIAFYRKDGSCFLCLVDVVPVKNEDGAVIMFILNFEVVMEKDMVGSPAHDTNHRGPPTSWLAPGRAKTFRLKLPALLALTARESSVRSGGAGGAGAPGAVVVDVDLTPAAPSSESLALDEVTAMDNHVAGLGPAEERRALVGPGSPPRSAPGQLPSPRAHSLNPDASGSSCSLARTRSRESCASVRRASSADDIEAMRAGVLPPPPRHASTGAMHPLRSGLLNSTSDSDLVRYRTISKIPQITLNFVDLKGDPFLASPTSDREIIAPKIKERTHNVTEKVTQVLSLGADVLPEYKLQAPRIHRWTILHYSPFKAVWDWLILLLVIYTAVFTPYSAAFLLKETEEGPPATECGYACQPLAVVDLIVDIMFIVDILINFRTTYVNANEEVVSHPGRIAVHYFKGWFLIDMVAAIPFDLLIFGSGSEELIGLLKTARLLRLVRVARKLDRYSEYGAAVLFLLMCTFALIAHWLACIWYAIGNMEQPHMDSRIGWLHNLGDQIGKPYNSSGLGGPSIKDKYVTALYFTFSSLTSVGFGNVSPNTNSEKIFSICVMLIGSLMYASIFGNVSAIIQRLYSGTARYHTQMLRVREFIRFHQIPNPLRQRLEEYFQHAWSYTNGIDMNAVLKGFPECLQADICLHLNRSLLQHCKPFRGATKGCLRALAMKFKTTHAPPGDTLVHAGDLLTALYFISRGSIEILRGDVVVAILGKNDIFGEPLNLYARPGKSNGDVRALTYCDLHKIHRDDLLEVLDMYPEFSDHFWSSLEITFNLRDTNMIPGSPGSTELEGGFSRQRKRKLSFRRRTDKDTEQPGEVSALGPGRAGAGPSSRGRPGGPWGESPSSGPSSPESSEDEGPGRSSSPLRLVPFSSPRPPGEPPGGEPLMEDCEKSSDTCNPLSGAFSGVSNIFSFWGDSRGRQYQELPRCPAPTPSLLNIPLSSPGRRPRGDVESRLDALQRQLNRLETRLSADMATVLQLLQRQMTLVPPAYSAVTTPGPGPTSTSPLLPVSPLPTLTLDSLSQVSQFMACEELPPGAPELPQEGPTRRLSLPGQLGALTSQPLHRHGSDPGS
Procedure: hERG screening was conducted using a procedure similar to the procedure described by Piper et al. (Piper, D. R. et al., Assay Drug Dev. Technol. 2008, 6(2):213-223). The Predictor hERG FP assay (available from ThermoFisher, cat. no. PV5365) is a homogenous, fluorescence polarization biochemical-based format utilizing a membrane fraction containing hERG channel protein (Predictor hERG Membrane) and a high affinity, red-fluorescent hERG channel ligand (Predictor hERG Tracer Red). When the Predictor hERG Tracer ligand is bound to the hERG channel it produces high fluorescence polarization values. Compounds that bind to the hERG channel protein (competitors) displace the Predictor hERG Tracer Red resulting in decreased fluorescence polarization values.
Test compounds were solubilized in DMSO at 100× (or greater) of the desired starting concentration. Screening was conducted with a final concentration of 1% DMSO. For 10-point titrations, 3-fold serial dilutions were performed from the starting concentrations. The assay buffer used was 25 mM HEPES (pH 7.5), 15 mM KCl, 1 mM MgCl2, and 0.05% Pluronic F-127 (available from Sigma-Aldrich).
Predictor hERG membranes were stored as a 2× stock at −80° C. Each membrane lot was titrated to identify the concentration of membranes required to obtain ˜70% bound tracer. Before setting up the assay the membranes were thawed in a 37° C. water bath and stored at room temperature. To avoid light scatter caused by large membrane particulates the membranes were sonicated until a homogeneous solution free of particulates is obtained. […]
384 well untreated low-volume polystyrene microplates (Corning Cat. #4511) were used for the assay. […] The assay plate was read on a fluorescence plate reader (Tecan Safire^2) and the data was analyzed. […]
Assay blank control wells consisted of Predictor hERG Membranes and Assay Buffer. The blank wells were used for background subtraction of raw parallel and perpendicular fluorescence values prior to the calculation of polarization values. […]

[3] = test system: MDCK-MDR1 cells; assay: in vitro; settings: dog, MDCK-MDR1, 1 h, 5 μM
Procedure: (§1) MDCK-MDR1 is a stable-transfected cell line originating from MDCK cells, with over-expression of human MDR1 gene. The cell line is widely used for the identification and characterization of P-gp substrates and inhibitors.
(§2) MDCK-MDR1 cells were plated into 96-well Millipore Millicell-96 plates at 7,500 cells/75 μL/well and incubated for three days at 37° C. with 5% CO2. Cells were washed with Hank's Balanced Salt Solution (HBSS) with 5 mM HEPES for 30 minutes before starting the experiment. Test compound solutions were prepared by diluting DMSO stock into HBSS buffer, resulting in a final DMSO concentration of 0.1%. Prior to the experiment, cell monolayer integrity was verified by […] electrical resistance (TEER). Transport experiment was initiated by adding test compounds to the apical (75 μL) or basal (250 μL) side. Transport plates were incubated at 37° C. in a humidified incubator with 5% CO2. Samples were taken from the donor and acceptor compartments after one hour and analyzed by liquid chromatography with tandem mass spectrometry (LC/MS/MS).
(§3) Digoxin was used as reference control.
(§4) Apparent permeability (Papp) values were calculated using the following equation: Papp=(dQ/dt)/A/Co; where dQ/dt is the initial rate of amount of test compound transported across cell monolayer, A is the surface area of the filter membrane, and Co is the initial concentration of the test compound, calculated for each direction using a 4-point calibration curve by LC/MS/MS.
(§5) Net flux ratio between the two directional transports was calculated by the following equation: Ratio=Papp, B-A/Papp, A-B; where Papp, B-A and Papp, A-B represent the apparent permeability of test compound from the basal-to-apical and apical-to-basal side of the cellular monolayer, respectively.
(§6) Recovery was calculated based on the compound concentration at the end of the experiment, compared to that at the beginning of the experiment, adjusted for volumes.
(§7) A net flux ratio greater than two was considered a positive result for substrate determination. […] If the addition of a known P-gp inhibitor to the experiment reduces the net flux ratio by a significant amount (more than 50% reduction or reduces the ratio to close to unity), it is likely that the compound tested is a P-gp substrate.

[4] = test system: P-gp (human MDR1); assay: in vitro; settings: dog; for Papp A→B at 1 h, 5 μM / Papp B→A at 1 h, 5 μM: MDCK-MDR1, Papp
Procedure: as §1, §2, §3, §4, §5, §6, §7

[5] = clinically tested; cited from earlier work

| CLint [1] [μL/min/mg protein] | microsomal CLint at 1 μM [1] [µL/min/mg] | half-life at 1 μM [1] [h] | Papp, A-B Value [3] [×10⁻⁶ cm/s] | Papp, B-A Value [3] [×10⁻⁶ cm/s] | Recover Rate [3] [%] | efflux ratio at 1 h, 5 μM ([4]; MDCK-MDR1) | Papp A→B at 1 h, 5 μM ([4]; A-B Mean) [×10⁻⁶ cm/s] | Papp A→B at 1 h, 5 μM ([4]; A-B Value) [×10⁻⁶ cm/s] | Papp B→A at 1 h, 5 μM ([4]; B-A Mean) [×10⁻⁶ cm/s] | Papp B→A at 1 h, 5 μM ([4]; B-A Value) [×10⁻⁶ cm/s] | Compound | IC50 [2] [µM] | side effects [5] |
| --- | --- | --- | --- | --- | --- | --- | --- | --- | --- | --- | --- | --- | --- |
| 5.27 | 5.27 | 1.1 | 12.9 | 43.7 | 99 | 3.4 | 12.8 | 12.7 | 43.5 | 43.2 | Cn1c(C(=O)NOCCO)c(Nc2ccc(I)cc2F)c2cnccc21 [Example C8] | 1.8 | – |
| 2.20 | 2.2 | 2.63 | – | – | – | – | – | – | – | – | O=C(NOC[C@H](O)CO)c1c(Nc2ccc(I)cc2F)sc2ncccc12 [Example C9] | 7.3 | – |
| – | – | – | – | – | – | – | – | – | – | – | O=C(NOC[C@H](O)CO)c1ccc(F)c(F)c1Nc1ccc(I)cc1F [PD0325901] | – | neurological side effects associated with ataxia, confusion, and syncope |
